Assay results as given in patent US20060142393A1, “Bis(thio-hydrazide amides) for treatment of hyperplasia” (priority 2004, published 2006).
Read-outs that look alike come from different tables or passages of the source.

Assays:
K-562 = test: MTS cytotoxicity, K-562 chronic myelocyte; format: cell-based; settings: Homo sapiens, K562, 72 hours, MTS assay, read-out: In vitro Cytotoxicity IC50, K-562
Protocol: (§1) The in vitro activity of the compounds was determined in a selected set of human leukemia cell lines. CEM (T-cell leukemia), Jurkat (T-cell leukemia), K562 (chronic myelocyte), THP-1 (monocyte), SB (B-cell leukemia), U937 (lymphoma) were purchased from ATCC. H2 leukemia cell line was a gift from Harvard Medical School. The cell lines were maintained in RPMI1640(GIBCO) supplemented with 10% FCS, 100 units/ml penicillin, 100 ug/ml streptomycin, and 2 mM L-glutamine. […] All experiments were performed on exponentially growing cell culture. Cell densities were 2.5×10^4 cells/mL in all experiments.
(§2) Final concentrations […] were obtained by diluting the stock solution directly into the tissue culture medium. Cells were incubated with varying concentrations of compounds for 72 hours and the IC50 was determined by MTS (i.e. […]) assay.

[1] = MTS cytotoxicity, 39SK normal fibroblast; format: cell-based; settings: human, 39SK cells (normal fibroblast), MTS assay, read-out: In vitro Cytotoxicity IC50, 39SK
MES-SA/DX5 = test: MTS growth inhibition, multi-drug resistant MES-SA/DX5 cells; format: cell-based, human; settings: for IC50: Homo sapiens
Protocol: (§3) The in vitro activity of the compounds was assessed in a selected set of human cancer cell lines.
(§4) MES—SA, a model of uterine sarcoma, is sensitive to a number of chemotherapeutic agents, including Doxorubicin, Dactinomycin, Mitomycin C, Taxol™ and Bleomycin, but resistant to Vinblastine and Cisplatin. MES—SA/DX5 was established in the presence of increasing concentrations of Doxorubicin. […] Both MES—SA and MES—SA/Dx5 were purchased from ATCC (ATCC CRL-1976 and ATCC CRL-1977, respectively).
(§5) All experiments were performed on exponentially growing cell culture. Cell densities were 2.5×10^4 cells/ml in all experiment except special.

THP-1 = test: MTS cytotoxicity, THP-1 monocyte; settings: Homo sapiens, THP-1, 72 h, read-out: In vitro Cytotoxicity IC50, THP-1
Protocol: as §1, §2

CEM = test: MTS cytotoxicity, CEM T cell leukemia; settings: Homo sapiens, CCRF-CEM, 72 h, read-out: In vitro Cytotoxicity IC50, CEM
Protocol: as §1, §2

HL-60 = test: MTS growth inhibition, HL-60 cells; format: cell-based; settings: Homo sapiens, HL-60, 72 h, MTS assay
Protocol: (§6) The in vitro activity of the compounds was assessed in a selected set of human cancer cell lines. Three pairs of tumor cell lines (non-resistant/resistant) were used to identify novel potent antitumor compounds which are capable of overcoming multi-drug resistance.
(§7) HL-60, a model of myeloid leukemia, was obtained from ATCC (ATCC CCL-240); and HL60/TX1000 was isolated in vitro by subculturing HL-60 in progressively higher concentration of Taxol™. HL-60/TX1000 cells over-express mdr-1 mRNA and p-glycoprotein (PCP), as determined by western blot and immunofluorescence labeling with antiPGP antibodies. The cells are cross-resistant to Taxol™, Vincristine, Adriamycin, Etoposide and Doxorubicin.
as §5

MES-SA = test: MTS growth inhibition, MES-SA cells; format: cell-based; settings: Homo sapiens, 72 h, MTS assay
Protocol: as §3, §4, §5

HL-60/TX1000 = test: MTS growth inhibition, multi-drug resistant HL-60/TX1000 cells; format: cell-based, human; settings: for IC50: Homo sapiens, HL60/TX1000, 72 hours, MTS assay, MDR cell line
Protocol: as §6, §7, §5

Bowes = test: MTS growth inhibition, Bowes melanoma cells; format: cell-based; settings: Homo sapiens, 72 h, MTS assay
Protocol: as §6
(§8) Bowes is a melanoma cell line; and Bowes/OV2 is a Vincristine resistant Bowes melanoma cell line.
as §5

U937 = test: MTS cytotoxicity, U937 lymphoma; format: cell-based; settings: Homo sapiens, U-937, 72 hours, MTS assay, read-out: In vitro Cytotoxicity IC50, U937
Protocol: as §1, §2

SB = test: MTS cytotoxicity, SB B cell leukemia; settings: Homo sapiens, 72 h, read-out: In vitro Cytotoxicity IC50, SB
Protocol: as §1, §2

Bowes/OV2 = test: MTS growth inhibition, Vincristine resistant Bowes/OV2 cells; format: cell-based, human; settings: for IC50: Homo sapiens, 72 hours, MTS assay, MDR cell line
Protocol: as §6, §8, §5

Jurkat = test: MTS cytotoxicity, Jurkat T cell leukemia; settings: Homo sapiens, 72 h, read-out: In vitro Cytotoxicity IC50, Jurkat
Protocol: as §1, §2

H2 = test: MTS cytotoxicity, H2 leukemia; format: cell-based; settings: Homo sapiens, 72 hours, MTS assay, read-out: In vitro Cytotoxicity IC50, H2
Protocol: as §1, §2

CEM cells = test: Human T-cell leukemia (CEM) growth in SCID mice, FACS quantitation of CEM cells in blood; format: in vivo; settings: 25 mg/kg intraperitoneally twice a day for 3 weeks; blood at day 33; CEM cells in white blood cells by FACS
Excerpt: Human T-cell leukemia cell line, CEM, was obtained from American Type Culture Collection. Eight-week old female SCID mice were purchased from Charles Rive Laboratories (Wilmington, Mass.). FITC conjugated anti-human […] was obtained from BD […]). ACK lysing buffer was obtained from BioWhittaker. […] After three weeks treatment, blood was taken from mouse retro-orbital sinus at day 33. Red blood cells were partially lyzed with ACK lysing buffer. The cells were stained with FITC conjugated anti-human […] antibody for one hour at 4° C. FACS analysis was performed to quantitate the amount of CEM cells in the blood. White blood cells were gated for FACS analysis.

[2] = system: MDA-435 human breast tumor; test: MDA-435 human breast carcinoma tumors in nude mice, combination with Epothilone D; format: in vivo; settings: Compound (1) 50 mg/kg + Epothilone D 5 mg/kg intravenously, 3 times a week for 3 weeks
Protocol: A supplemented media was prepared from 50% DMEM/Dulbecco Modified Eagle Medium (High Glucose), 50% RPMI 1640, 10% FBS/Fetal Bovine Serum (Hybridoma Tested; Sterile Filtered), 1% L-Glutamine, 1% Penicillin-Streptomycin, 1% MEM Sodium Pyruvate and 1% MEM Non-Essential Amino Acids. FBS was obtained from Sigma Chemical Co. and other ingredients were obtained from Invitrogen Life Technologies, USA). The supplemental media was warmed to 37° C and 50 ml of media was added to a 175 cm^2 tissue culture flask.
The cells used in the assay were MDA-435 Human Breast Carcinoma from the American Type Culture Collection. 1 vial of MDA-435 cells from the liquid nitrogen frozen cell stock was removed. The frozen vial of cells was immediately placed into a 37° C. water bath and gently swirled until thawed. The freeze-vial was wiped with 70% ethanol and cells were immediately pipetted into the 175 cm^2 tissue culture flask containing supplemented media. […]

[3] = system: MES-SA/DX5 human sarcoma tumor; test: MES-SA/DX5 human uterine sarcoma tumors in nude mice; format: in vivo; settings: 15 mg/kg intravenously, 3 times a week for 3 weeks
Protocol: A supplemented media was prepared from 50% DMEM/Dulbecco Modified Eagle Medium (High Glucose), 50% RPMI 1640, 10% FBS/Fetal Bovine Serum (Hybridoma Tested; Sterile Filtered), 1% L-Glutamine, 1% Penicillin-Streptomycin, 1% MEM Sodium Pyruvate and 1% MEM Non-Essential Amino Acids. FBS was obtained from Sigmna Chemical Co. and other ingredients were obtained from Invitrogen Life Technologies, USA). The supplemental media was warmed to 37° C. and 50 ml of media was added to a 175 cm^2 tissue culture flask.
The cells used in the assay were multi-drug resistant MES—SA/DX-5 Human Uterine Sarcoma cells from the American Type Culture Collection. 1 vial of MES—SA/DX-5 cells from the liquid nitrogen frozen cell stock was removed. The frozen vial of cells was immediately placed into a 37° C. water bath and gently swirled until thawed. The freeze-vial was wiped with 70% ethanol and cells were immediately pipetted into the 175 cm^2 tissue culture flask containing supplemented media. […]
The flask was washed with 10 ml of sterile room temperature phosphate buffered saline (PBS). […] The supernatant was aspirated and the cell pellet was resuspended in 10 ml of supplemented media and the cells were counted. […]
The above procedure for trypsinizing and centrifuging the cells were followed. The supernatant was aspirated and the cell pellet was resuspended in 10 ml of sterile PBS and the cells were counted. […]

[4] = MES-SA/Dx5, 72 hours, MTS assay, MDR cell line, read-out: IC50 MES-SA/DX5
[5] = MES-SA/Dx5, read-out: IC50 MES/DX5
[6] = MES-SA/Dx5, Example 2, protocol of Example 1, MDR uterine sarcoma cell line, read-out: IC50 MES/DX5

Molecule `CC[C@]1(O)C[C@H]2CN(CCc3c([nH]c4ccccc34)[C@@](C(=O)OC)(c3cc4c(cc3OC)N(C=O)[C@H]3[C@@](O)(C(=O)OC)[C@H](OC(C)=O)[C@]5(CC)C=CCN6CC[C@]43[C@@H]65)C2)C1` [Vincristine] has an IC50 (K-562) of 5 nM, an IC50 at 72 h [1] of 1000 nM and an IC50 (MES-SA/DX5; [4]) of 5000 nM. The IC50 (THP-1) was 5 nM, the IC50 (CEM) was 5 nM and the IC50 (HL-60) was 2 to 5 nM. It also gave an IC50 (MES-SA) of 2 to 5 nM, an IC50 (HL-60/TX1000) of 5000 nM and an IC50 (Bowes) of 2 to 5 nM. For the same molecule, the IC50 (U937) was 5 nM, the IC50 (SB) was 1 nM and the IC50 (Bowes/OV2) was 5000 nM. The IC50 (Jurkat) was 1 nM and the IC50 (H2) was 5 nM.

For `CN(NC(=O)CC(=O)NN(C)C(=S)c1ccccc1)C(=S)c1ccccc1` [Compound (1)], the “% circulating leukemia cells” value (CEM cells) was roughly 4.6%, the IC50 (MES-SA/DX5; MES-SA/Dx5, 72 h, read-out: IC50 MES-SA/DX5) was 5 nM and the “specificity against MES-SA/DX5” value (MES-SA/DX5; IC50 MES-SA / IC50 MES-SA/DX5 (=0.05/0.005)) was 10. The “effect on anti-tumor activity of Epothilone D” value ([2]; FIG. 2) was “significantly enhanced anti-tumor activity of Epothilone D”, the “toxicity of combination with Epothilone D (body weight)” value ([2]; FIG. 3) was “without increasing toxicity” and the IC50 (CEM) was 10 nM. For the same molecule, the IC50 (HL-60) was 400 nM, the IC50 (HL-60/TX1000) was 50 nM and the “specificity against HL60/TX1000” value (HL-60/TX1000; IC50 HL-60 / IC50 HL-60/TX1000 (=0.4/0.05)) was 8. It also gave an IC50 (Bowes) of 200 nM, an IC50 (SB) of 5 nM and an IC50 (Bowes/OV2) of 10 nM. For the same molecule, the “specificity against Bowes/OV2” value (Bowes/OV2; IC50 Bowes / IC50 Bowes/OV2 (=0.2/0.01)) was 20.

In the case of `CCN(NC(=O)C(C)C(=O)NN(CC)C(=S)c1ccccc1)C(=S)c1ccccc1` [Compound (16)], the “toxicity (body weight suppression, behavior changes)” value [3] is reported as “no obvious toxicity”, the “tumor growth of MES/SA-DX5 compared to vehicle treated mice” value ([3]; FIG. 1) is reported as “significantly inhibits the tumor growth” and the IC50 (MES-SA/DX5; [5]) is reported as 50 nM.

`CN(NC(=O)CC(=O)NN(C)C(=S)C1CC1)C(=S)C1CC1` [(18)] gave an IC50 (MES-SA/DX5; [6]) of 10 nM.

For `CC(=O)O[C@H]1C(=O)[C@@]2(C)[C@H]([C@H](OC(=O)c3ccccc3)[C@]3(O)C[C@H](OC(=O)[C@H](O)[C@@H](NC(=O)c4ccccc4)c4ccccc4)C(C)=C1C3(C)C)[C@]1(OC(C)=O)CO[C@@H]1C[C@@H]2O` [Taxol ™, paclitaxel], the IC50 (K-562) was 5 nM, the IC50 at 72 h [1] was 1000 nM and the IC50 (MES-SA/DX5; [4]) was 5000 nM. The IC50 (MES-SA/DX5; [6]) was 5000 nM, the IC50 (THP-1) was 5 nM and the IC50 (CEM) was 10 nM. It also gave an IC50 (HL-60) of 2 to 5 nM, an IC50 (HL-60/TX1000) of 5000 nM and an IC50 (U937) of 5 nM. For the same molecule, the IC50 (SB) was 1 nM, the IC50 (Bowes/OV2) was 5000 nM and the IC50 (Jurkat) was 1 nM. It also gave an IC50 (H2) of 5 nM.

In the case of `COc1cccc(C(=S)N(C)NC(=O)C(C)C(=O)NN(C)C(=S)c2cccc(OC)c2OC)c1OC` [Compound (12)], the IC50 (MES-SA/DX5; [5]) is reported as 5 nM.

Work on `CN(NC(=O)CC(=O)NN(C)C(=S)c1cc(Cl)ccc1Cl)C(=S)c1cc(Cl)ccc1Cl` [Compound (14)] yielded an IC50 (MES-SA/DX5; [5]) of 10 nM.

`COc1ccc(C)c(C(=S)N(C)NC(=O)CC(=O)NN(C)C(=S)c2cc(OC)ccc2C)c1` [Compound (13)] gave an IC50 (MES-SA/DX5; [5]) of 50 nM.
